Test results reported in patent US20070037875A1, “Genistein inhibition of transthyretin amyloidosis” (The Scripps Research Institute, priority 2005, published 2007).
Read-outs that look alike come from different tables or passages of the source. One block for each molecule: values may come before it.

Columns and labels:
[1] = target: T1, WT TTR (Homo sapiens, UniProt P02766); assay: Stagnant transthyretin aggregation (fibril formation) assay, turbidity; format: biochemical
T1 construct: made in house; host or cells: E. coli

[2] = target: TTR in human blood plasma (Homo sapiens, UniProt P02766); assay: Plasma selectivity binding to TTR, antibody capture/HPLC method; conditions: 10.8 μM compound in human plasma, 37° C., 18 h; maximum 2.0; lower limit because of wash losses
[3] = cited from earlier work
[4] = system: Caco-2 cells; conditions: Caco-2 cells and perfused rat intestinal models; cited from earlier work
[5] = target: T1, WT TTR; assay: Isothermal titration calorimetry; format: binding
Protocol: The dissociation constants characterizing the binding of genistein to WT TTR were determined using a Microcal isothermal titration calorimeter (Microcal Inc., Northhampton, Mass.). A solution of the small molecule (final concentration 432 μM in 25 mM Tris (pH 8.0) containing 100 mM KCl, 1 mM EDTA, 10% EtOH,) was prepared and titrated into an ITC cell containing WT TTR (12 μM in 25 mM Tris (pH 8.0) containing 100 mM KCl, 1 mM EDTA, 10% EtOH). For all runs, a small preliminary injection was followed by identical injections (2.0-5.0 μL) up to a ligand:protein molar ratio of at least 4:1. The data were fit by a nonlinear least squares approach to either an identical binding sites model, or a sequential interacting binding sites model (Foss, T. R.; et al. J. Mol. Biol. 2005, in press) utilizing Microsoft Excel (Microsoft Corporation, Redmond, Wash.) with the Solver plugin.
Isothermal titration calorimetry was employed to determine the dissociation constants of the binding of genistein to WT TTR at pH 8.0 (25° C.). Integration of the thermogram after subtraction of blanks yielded a binding isotherm that fit equally well to a model of two sequential interacting binding sites with negative cooperativity or two identical non-interacting sites. The fit to sequential binding sites yielded dissociation constants of Kd1=40±25 nM, Kd2=1400±170 nM. Fitting the data to identical binding sites gave Kd1=Kd2=845±45 nM with an occupancy of 1.92±0.07.

[6] = target: T1, WT TTR; assay: Urea-mediated tetramer dissociation by far-UV circular dichroism; format: biochemical; conditions: WT TTR 1.8 μM, 6.0 M urea, after 120 h
Protocol: (§1) TTR (400 μL, 0.25 mg/mL; 4.5 μM tetramer) was pre-incubated with genistein at concentrations of either 4.5 or 9.0 μM for 18 h at 25° C. Urea (10M, 600 μL) in 50 mM phosphate buffer (pH 7.0) containing 100 mM KCl, 1 mM EDTA and 1 mM DTT was added to the samples immediately prior to the first measurement (1.0 mL total volume, 6.0 M urea, 0.1 mg/mL TTR (1.8 μM tetramer) final concentration). Circular dichroism spectra were recorded as a function of time up to 120 h (25° C.) using a wavelength scan from 220 to 214 nm, sampling every 0.5 nm. The signal from 218 to 215 was averaged and plotted to determine the fraction of TTR tetramer that was dissociated and unfolded at each time point.
(§2) Genistein was further tested for its ability to kinetically stabilize tetrameric TTR against urea-induced dissociation. Since dissociation of the tetramer is required for urea-induced monomer denaturation, it is possible to monitor rate-limiting tetramer dissociation by linking this process to fast monomer unfolding in a post-transition urea concentration (6 M), rendering the process irreversible. The rate and extent of tetramer dissociation at different small molecule concentrations was monitored by far-UV CD spectroscopy in 6.0 M urea. Genistein exerts its most dramatic effect on the amplitude of WT TTR tetramer dissociation (FIG. 4A). At equimolar amounts of genistein and WT TTR (1.8 μM), only 10% of the protein dissociates and unfolds after 120 h, implying that the remainder is stabilized as a consequence of small molecule binding. This compares to 33% of dissociation for V122I (FIG. 4C, triangles) and 87% V30M (FIG. 4B, triangles) dissociating under identical conditions. When the inhibitor concentration (3.6 μM) is twice that of TTR (1.8 μM), only 1% of WT TTR (FIG. 4A, diamonds), 18% of V122I (FIG. 4C, diamonds), and 70% of V30M (FIG. […]) dissociates over the same time period.
(§3) FIG. 4 illustrates a series of graphs showing the rate of urea-mediated tetramer dissociation (6 M) curves for (A) WT (circles), (B) V30M, and (C) V122I TTR. TTR dissociation is slowed dramatically when WT and the variants are preincubated with genistein (1.8 μM, triangles; 3.6 μM, diamonds). The far-UV CD ellipticity at 214-218 nm was compared to that of WT to determine the fraction of TTR that dissociated and rapidly unfolded at each time point.

[7] = target: T2, V122I TTR (Homo sapiens, UniProt P02766, V142I); assay: as above; format: biochemical; conditions: V122I TTR 1.8 μM, 6.0 M urea, after 120 h
T2 construct: made in house; host or cells: E. coli
Protocol: as §1, §2, §3

[8] = target: T3, V30M TTR (Homo sapiens, UniProt P02766, V50M); assay: as above; format: biochemical; conditions: V30M TTR 1.8 μM, 6.0 M urea, after 120 h
T3 construct: made in house; host or cells: E. coli
Protocol: as §1, §2, §3

[9] = even at the relatively high concentrations employed; cited from earlier work

decrease in WT TTR aggregation inhibition relative to genistein ([1]; pH 4.4): 2 fold
SMILES: O=c1cc(-c2ccc(O)cc2)oc2cc(O)cc(O)c12 [apigenin]

decrease in aggregation inhibition potency relative to genistein ([1]; inhibitor 7.2 μM, twice that of TTR): approximately 4 fold | plasma selectivity: binding stoichiometry to TTR [2]: ≥ 0.75 equivalents per tetramer
SMILES: O=c1c(-c2ccc(O)cc2)coc2cc(O)ccc12 [daidzein, reference compound]

SMILES: O=c1c(-c2ccc(O)cc2)coc2cc(O)cc(O)c12 [genistein]
in vivo plasma concentrations of genistein ([3]; dose of 16 mg/kg of body weight, oral): 0.1 to 8 µM | half-life in plasma ([3]; men): 3.2 h | half-life in plasma ([3]; women): 3.8 h | intestinal absorption [4]: efficiently absorbed into the intestine | Kd ([5]; Kd1, two sequential interacting binding sites model (negative cooperativity), pH 8.0, 25° C.): 0.04 µM | Kd ([5]; Kd1=Kd2, two identical non-interacting sites model, pH 8.0, 25° C.): 0.845 µM | Kd ([5]; read-out: Kd2, negative cooperativity, ITC): 1.4 µM | Kd ([5]; read-out: Kd2, two sequential interacting binding sites model (negative cooperativity), pH 8.0, 25° C.): 1.4 µM | protein that dissociates and unfolds ([6]; genistein 1.8 μM): 10% | protein that dissociates and unfolds ([6]; genistein 3.6 μM): 1% | protein that dissociates and unfolds ([7]; genistein 1.8 μM): 33% | protein that dissociates and unfolds ([7]; genistein 3.6 μM): 18% | protein that dissociates and unfolds ([8]; genistein 1.8 μM): 87% | protein that dissociates and unfolds ([8]; genistein 3.6 μM): 70% | adverse health effects in toxicity studies [9]: does not appear to cause adverse health effects | plasma selectivity: binding stoichiometry to TTR [2]: 1.45 equivalents per tetramer

SMILES: O=c1c(-c2ccc(O)cc2)coc2cc(O[C@@H]3O[C@H](CO)[C@@H](O)[C@H](O)[C@H]3O)cc(O)c12 [genistin, reference compound]
permeability, lower than corresponding aglycone (genistein) [4]: approximately 5 fold
